Reference: publication PMC10313921, “A living ex vivo platform for functional, personalized brain cancer diagnosis” (Cell Reports Medicine, 2023)

Assays:
[1] = test system: U373KO (RAD18 knockout of U373WT via CRISPR); test: Drug screening of U373KO tumor foci on OBSCs; assay type: cell-based, human; conditions: U373 KO on OBSCs
Outline: (§1)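 Scores integrate therapeutic windows between tumor kill and slice toxicity (at DSS thresholds, EC50 slopes, curve areas) plus tumor-behavior parameters, giving −100 to +100. Tumor viability came from bioluminescence three days after drug or radiation, normalized to day-one fluorescence.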

[2] = test system: PGBM patient tumor tissue (pediatric GBM); test: Drug screening of uncultured patient tumor tissue PGBM on OBSCs; assay type: cell-based, human
Method: (§2) Tumor cells were seeded onto OBSCs 2h after slicing as described above. One day after tumor seeding, six concentrations of each drug were diluted in the media underneath each culture insert, or XRad was applied using an X-Rad 320 Precision X-ray machine (n = 4 tumor foci per concentration; n ≥ 24 tumor foci per drug per cell line). Three days after treatment, the bioluminescence of live tumor cells was measured using an AMI optical imager (Spectral Instruments) and dose-response curves were generated. Tumor survival was normalized to day one tumor fluorescence and compared to an untreated control group.
(§3) To engraft onto OBSCs, the cryopreserved/thawed or fresh brain tumor tissue was filtered through a 100 μm cell strainer. Each 50 mg of tissue was transfected with 1mL mcherry-FLuc Lentivirus at 1.5e7 vg/ml with 1μL polybrene for 4h at 37°C. After incubation, the brain tumor tissue was washed with PBS three times to remove the residual virus and reconstituted in PBS with a final volume of 150 μL. Then the tissue solution was engrafted atop OBSCs at ∼0.5 mg tissue in 3 μL of PBS on each hemisphere of the slice. The OBSC engrafted with patient tumor tissue was incubated at 37°C with 5% CO2 and 95% humidity. The BSM was changed after 24h and subsequently every 3 days. Tumor treatment studies were executed as described above for tumor lines. The viability of the patient tissue was measured by an AMI optical imaging system with the addition of 1.5 mg/mL luciferin underneath the culture insert.
(§4) Several weighted parameters were factored into an overall drug sensitivity score.
(§5) For DSS parameters 1–6, therapeutic windows were calculated by comparing OBSC toxicity and tumor response at the doses where tumor kill passed through the DSS parameter (Table S1 and S3). For DSS parameter 7, the therapeutic window was calculated by comparing the slopes through the tumor EC50 and the OBSC tox EC50. For DSS parameter 8, the therapeutic window was calculated by comparing the areas under tumor kill and OBSC tox curves. Normalized therapeutic window ratios for DSS parameters 1–8 within each drug-tumor-OBSC interaction were calculated in the following manner: within each window, values ranged from +1 to −1, where values approaching +1 signify increasing tumor kill relative to normal tissue toxicity, and values approaching −1 indicate agents where tumors remained highly viable while toxicity to the normal OBSC tissue was elevated. DSS parameters 9–11 were determined based on the behavior of the tumor in response to the drug, as defined above.
(§6) All individually weighed parameters were added together to generate the DSS. Overall DSS from 0 to 100 signify increasing efficacy in tumor kill relative to OBSC toxicity, while scores from 0 to −100 describe scenarios in which tumors thrive more effectively than OBSCs for a given treatment. Dose-response values were calculated via linear interpolation of raw data, not from best-fit curve equations.

[3] = test system: U373WT (wild-type established GBM line); test: Drug screening of U373WT tumor foci on OBSCs; assay type: cell-based, human; conditions: U373 WT on OBSCs
Outline: as §1

[4] = test system: GBM8 (high-passage patient-derived GBM line); test: Drug screening of GBM8 tumor foci on OBSCs; assay type: cell-based, human
Outline: as §1

[5] = test system: LN229 (established GBM line); test: Drug screening of LN229 tumor foci on OBSCs; assay type: cell-based, human
Outline: as §1

[6] = test system: MG-II patient tumor tissue (WHO grade II meningioma); test: Drug screening of uncultured patient tumor tissue MG-II on OBSCs; assay type: cell-based; conditions: Homo sapiens, dose required to kill 90% of the tumor
Method: as §2, §3, §4, §5, §6

[7] = test system: PGBM-R patient tumor tissue (recurrent tumor from same patient as PGBM); test: Drug screening of uncultured patient tumor tissue PGBM-R on OBSCs; assay type: cell-based, human
Method: as §2, §3, §4, §5, §6

[8] = test system: PIS patient tumor tissue (intracranial sarcoma); test: Drug screening of uncultured patient tumor tissue PIS on OBSCs; assay type: cell-based, human; conditions: Homo sapiens, PIS on OBSCs
Outline: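 Uncultured patient tumour tissue, transduced with mCherry-FLuc lentivirus, engrafted on organotypic brain slice cultures (OBSCs); six drug concentrations or X-ray dosing given one day after seeding, n = 4 foci per concentration. Bioluminescence with luciferin read three days post-treatment, normalised to day one and untreated controls; drug sensitivity score combines weighted therapeutic-window parameters versus OBSC toxicity (−100 to 100).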

[9] = test system: PDIPG (low-passage pediatric patient-derived line); test: Drug screening of PDIPG tumor foci on OBSCs; assay type: cell-based, human
Outline: as §1

[10] = test system: MB231Br (breast cancer metastasis to brain); test: Drug screening of MB231Br tumor foci on OBSCs; assay type: cell-based, human
[11] = test system: MS21 (low-passage patient-derived GBM line); test: Drug screening of MS21 tumor foci on OBSCs; assay type: cell-based, human
Outline: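 Luciferase-expressing tumor cells seeded onto organotypic brain slice cultures; one day later treated with six drug concentrations in the medium, or X-irradiation. Bioluminescence read three days after treatment, normalised to day-one fluorescence and untreated controls. Dose-response values by linear interpolation; DSS combines weighted tumor-kill versus slice-toxicity parameters (−100 to 100).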

[12] = Homo sapiens, U373 MG, dose required to kill 50% of the tumor
[13] = Homo sapiens, U373 MG, dose required to kill 90% of the tumor
[14] = Homo sapiens, U373 MG, dosed day 1, survival via bioluminescence day 4, linear interpolation
[15] = area under the dose-response curve, trapezoidal rule
[16] = dose required to kill 10% of the tumor
[17] = dose required to kill 25% of the tumor

CC(=O)Nc1cccc(-n2c(=O)n(C3CC3)c(=O)c3c(Nc4ccc(I)cc4F)n(C)c(=O)c(C)c32)c1 [Trametinib]
EC50 [1, 12]: > 10 µM | EC90 [1, 13]: > 10 µM | IC50 [1, 14]: > 10 µM | Killing at highest dose [1]: 3.10E-01 fraction of tumor population killed | AUC [1, 15]: 8.91E+01 | EC10 [1, 16]: 45.8 µM | EC25 [1, 17]: 84.5 µM | Slope ([1]; slope through the EC50): -3.88E-03 | EC50 ([2]; Homo sapiens, PGBM on OBSCs, dose required to kill 50% of the tumor): > 100 µM | EC90 ([2]; Homo sapiens, PGBM on OBSCs, dose required to kill 90% of the tumor): > 10 µM | Killing at highest dose ([2]; PGBM patient tissue on OBSCs, 72 h): about one-third | DSS (drug sensitivity score) ([2]; PGBM patient tissue, scale -100 to +100): 16 | EC50 [3, 12]: > 10 µM | EC90 [3, 13]: > 10 µM | IC50 [3, 14]: > 10 µM | Killing at highest dose [3]: 4.80E-01 fraction of tumor population killed | AUC [3, 15]: 5.40E+01 | EC10 [3, 16]: 0.625 µM | EC25 [3, 17]: 2.16 µM | Slope ([3]; slope through the EC50): -2.50E-04 | Killing at highest dose ([4]; GBM8 on OBSCs): 9.80E-01 fraction of tumor population killed | AUC ([4]; GBM8 on OBSCs, area under the dose-response curve, trapezoidal rule): 4.78E+00 | EC10 ([4]; GBM8 on OBSCs, dose required to kill 10% of the tumor): 0.0313 µM | EC25 ([4]; GBM8 on OBSCs, dose required to kill 25% of the tumor): 0.0781 µM | EC75 ([4]; GBM8 on OBSCs, dose required to kill 75% of the tumor): 0.779 µM | Slope ([4]; GBM8 on OBSCs, slope through the EC50): -6.33E-01 | EC50 ([4]; Homo sapiens): 384 nM | EC90 ([4]; Homo sapiens): 1670 nM | IC50 ([4]; Homo sapiens): 380 nM | Killing at highest dose [5]: 5.60E-01 fraction of tumor population killed | EC50 ([5]; Homo sapiens, LN-229, dose required to kill 50% of the tumor): 18.6 µM | EC90 ([5]; Homo sapiens, LN-229, dose required to kill 90% of the tumor): > 10 µM | IC50 ([5]; Homo sapiens, LN-229, dosed day 1, survival via bioluminescence day 4, linear interpolation): 19 µM | AUC [5, 15]: 4.96E+01 | EC10 [5, 16]: 0.668 µM | EC25 [5, 17]: 3.46 µM | Slope ([5]; slope through the EC50): -1.47E-02 | EC90 [6]: > 10 µM | EC90 ([7]; Homo sapiens, PGBM-R on OBSCs, dose required to kill 90% of the tumor): > 10 µM | increase of DSS in the recurrent tumor ([7]; PGBM-R relative to PGBM): 58 points | EC50 ([8]; dose required to kill 50% of the tumor): > 100 µM | EC90 ([8]; dose required to kill 90% of the tumor): > 10 µM | EC50 ([9]; Homo sapiens): > 10 µM | EC90 ([9]; Homo sapiens): > 10 µM | IC50 ([9]; Homo sapiens): > 10 µM | Killing at highest dose ([9]; PDIPG on OBSCs): 1.70E-01 fraction of tumor population killed | AUC ([9]; PDIPG on OBSCs, area under the dose-response curve, trapezoidal rule): 8.73E+01 | EC10 ([9]; PDIPG on OBSCs, dose required to kill 10% of the tumor): 30 µM | Slope ([9]; PDIPG on OBSCs, slope through the EC50): -1.00E-03 | EC50 ([10]; Homo sapiens, MB231BR on OBSCs, dose required to kill 50% of the tumor): 784 nM | EC90 ([10]; Homo sapiens, MB231BR on OBSCs, dose required to kill 90% of the tumor): > 10 µM | IC50 ([10]; Homo sapiens, MB231Br on OBSCs, dosed day 1, survival via bioluminescence day 4, linear interpolation): 780 nM | Killing at highest dose ([10]; MB231BR on OBSCs): 7.00E-01 fraction of tumor population killed | AUC ([10]; MB231BR on OBSCs, area under the dose-response curve, trapezoidal rule): 3.32E+01 | Slope ([10]; MB231BR on OBSCs, slope through the EC50): -2.78E-01 | EC50 ([11]; Homo sapiens): > 10 µM | EC90 ([11]; Homo sapiens): > 10 µM | IC50 ([11]; Homo sapiens): > 10 µM | Killing at highest dose ([11]; MS21 on OBSCs): -5.00E-02 fraction of tumor population killed | AUC ([11]; MS21 on OBSCs, area under the dose-response curve, trapezoidal rule): 1.26E+02
